Source: patent US11117899B2, “[1,2,4]triazolo[1,5-c]pyrimidine derivative as A2A receptor inhibitor” (MEDSHINE DISCOVERY INC., priority 2017, dated 2021)

Biological target: T1, Human adenosine A2A receptor (Homo sapiens, UniProt P29274)
T1 construct: host or cells: CHO
Assay: Human adenosine A2A receptor calcium flux assay
Type: cell-based
Settings: A2A stable CHO cell strain, antagonist mode against agonist NECA at EC80, FLIPR Fluo-4
Method: Human adenosine A2A receptor calcium flux assay
A2A stable cell strain was constructed by Shanghai WuXi PharmaTech, and the host cell was CHO.
Fluo-4 Direct Kit (Invitrogen, Cat. No. F10471). After the fluorescent detection reagent (specifically binding to calcium ions and causing an increase in fluorescence signal) in the kit was incubated with the cells for a suitable period of time, the compound was added to stimulate the cells to cause changes in intracellular calcium flux, thereby causing changes in the fluorescent signal, which can reflect the strength of the agonistic or inhibitory activity of the compound.
F12+10% fetal bovine serum+geneticin 300 ug/ml+blasticidin 2 ug/ml Compound dilution buffer:
Hanks Balanced Salt Buffer (Invitrogen)+20 mM HEPES, configured before each use
The test compounds were dissolved in DMSO to prepare 10 mM stock solutions. The test compounds were diluted to 0.2 mM with DMSO, and the reference compound CGS-15943 was diluted to 0.015 mM with DMSO. Next, 10 points of three-fold serial dilutions were made with ECHO. 900 nl was transferred to the compound plate (Greiner-781280), and 30 ul of compound dilution buffer was added. The final starting concentration of the test compounds was 1 uM and CGS-15943 was 0.075 uM.
Cryopreserved A2A cells were resuscitated, and then resuspended in culture medium to 1×10^6 cells/ml. The suspension was seeded into 384-well polylysine-coated cell plates (Greiner-781946) at 20 μl/well and incubated overnight in a 5% CO2 incubator at 37° C.
The cell plate prepared the day before was taken out from the incubator, and 20 ul of 2× Fluo-4 Direct™ buffer was added to each well. The plate was incubated for 50 minutes in a 5% CO2 incubator at 37° C. and allowed to stand at room temperature for 10 minutes.
Dilution of agonist NECA: 10 points of three-fold serial dilutions were made with Echo for NECA from a starting concentration of 0.15 mM. 900 nL was then transferred to the corresponding compound plate; and then 30 μl of compound dilution buffer was added to the corresponding compound plate. The final starting concentration was 750 nM.
FLIPR instrument software was run. According to the programmed procedure, 10 ul of compound dilution buffer was added to the cell plate and the fluorescence signal was read. 10 ul of the agonist reference compound at the indicated concentration was then added to the cell plate and the fluorescent signal was read. After reading, the data was exported by the “Max-Min”, “Read 90 to Maximum allowed” method in the software, and the EC80 of the A2A cell line was calculated. The agonist was prepared at a concentration of 6× EC80. A 6× EC80 concentration of a reference compound agonist of the corresponding cells was prepared with a buffer solution, and added at 30 ul/well to the corresponding compound plate for use.
FLIPR instrument software was run. According to the programmed procedure, 10 μl of the test compounds and reference compound at an indicated concentration was added to the cell plate and the fluorescence signal was read. 10 ul of the reference compound agonist at a concentration of 6× EC80 was then added to the cell plate and the fluorescent signal was read. For the agonist detection of the compounds, the data was exported by the “Max-Min”, “Read 1 to 90” method in the software. For the antagonist detection of the compound, the data was exported by the “Max-Min”, “Read 90 to Maximum allowed” method in the software. Data were analyzed by GraphPad Prism 5.0 and the IC50 values of the test compounds were calculated.

T1 sequence (P29274 whole entry): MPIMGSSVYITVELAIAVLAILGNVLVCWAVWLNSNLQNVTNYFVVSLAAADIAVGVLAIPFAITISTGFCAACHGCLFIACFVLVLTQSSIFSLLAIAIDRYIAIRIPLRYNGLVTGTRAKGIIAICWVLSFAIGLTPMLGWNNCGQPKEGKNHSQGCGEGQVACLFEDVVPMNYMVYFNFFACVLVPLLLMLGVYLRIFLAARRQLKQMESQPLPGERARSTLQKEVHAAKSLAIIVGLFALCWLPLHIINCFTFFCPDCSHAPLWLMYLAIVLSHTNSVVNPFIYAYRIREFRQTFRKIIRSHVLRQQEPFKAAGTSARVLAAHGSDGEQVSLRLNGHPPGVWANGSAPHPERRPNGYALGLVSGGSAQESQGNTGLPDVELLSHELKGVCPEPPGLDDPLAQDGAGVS

Row | Structure (SMILES) | IC50
1 | COc1cc(F)ccc1-c1nc(N)n2ncnc2c1-c1ccc2nn[nH]c2c1 [Example A-29] | 37.2 nM
2 | Nc1nc(-c2ccccc2)c(-c2ccc3c(c2)CCCN3)c2ncnn12 [Example B-17] | 1.89 nM
3 | Nc1nc(-c2ccccc2)c(-c2ccc3[nH]nnc3c2)c2nc(C(F)(F)F)nn12 [Example C-29] | 1.5 nM
4 | CCc1nc2c(-c3ccc4nn[nH]c4c3)c(-c3ccccc3OC)nc(N)n2n1 [Example C-32] | 38.9 nM
5 | Cc1cc(-c2c(-c3ccc(C(F)(F)F)cc3)nc(N)n3ncnc23)cc(C(F)(F)F)n1 [Example A-13] | 13.8 nM
6 | Cc1cc(-c2c(-c3ccc(F)cc3F)nc(N)n3nc(C)nc23)cc(C(F)(F)F)n1 [Example C-51] | 13.6 nM
7 | COc1cc(-c2c(-c3ccccc3)nc(N)n3ncnc23)cc(C)n1 [Example B-29] | 0.11 nM
8 | Nc1nc(-c2ccccc2)c(-c2ccc3ncccc3c2)c2ncnn12 [Example B-16] | 0.14 nM
9 | Cc1cc(-c2c(-c3ccn(C)n3)nc(N)n3nc(C(F)(F)F)nc23)cc(C(F)(F)F)n1 [Example C-63] | 7.22 nM
10 | CCc1nc2c(-c3ccc4[nH]nnc4c3)c(-c3ccccc3)nc(N)n2n1 [Example C-25] | 3.16 nM
11 | Cc1cc(-c2c(-c3cccnc3)nc(N)n3ncnc23)cc(C(F)(F)F)n1 [Example A-12] | 11.4 nM
12 | Nc1nc(-c2ccccc2)c(-c2ccc3[nH]nnc3c2)c2nc(CO)nn12 [Example C-24] | 0.95 nM
13 | Cc1cc(-c2c(-c3ccc(C)o3)nc(N)n3nc(CO[C@H]4CCOC4)nc23)cc(C(F)(F)F)n1 [Example C-72] | 0.16 nM
14 | Cc1cc(Cl)cc(-c2c(-c3ccccc3)nc(N)n3ncnc23)c1 [Example B-26] | 14.8 nM
15 | COc1ccccc1-c1nc(N)n2ncnc2c1-c1ccc2nn[nH]c2c1 [Example A-30] | 20.4 nM
16 | Cc1cc(-c2c(-c3ccn(C)n3)nc(N)n3nc(C)nc23)cc(C(F)(F)F)n1 [Example C-64] | 0.36 nM
17 | Nc1nc(-c2ccc(F)cc2)c(-c2ccc3[nH]nnc3c2)c2nc(C(F)(F)F)nn12 [Example C-42] | 10.1 nM
18 | Cc1nc2c(-c3ccc4[nH]nnc4c3)c(-c3ccccc3)nc(N)n2n1 [Example C-22] | 2.96 nM
19 | Cc1cc(-c2c(-c3ccccc3)nc(N)n3nc(C4CC4)nc23)cc(C)n1 [Example C-11] | 0.78 nM
20 | Cc1cc(-c2c(-c3ccccc3)nc(N)n3ncnc23)ccc1F [Example B-2] | 7.82 nM
21 | Cc1cc(-c2c(-c3ccccc3)nc(N)n3nc(C(=O)NCc4ccc(F)cc4F)nc23)cc(C)n1 [Example C-18] | 2.39 nM

Row | Structure (SMILES) | IC50
22 | COc1cc(-c2c(-c3ccccc3)nc(N)n3ncnc23)ccn1 [Example B-27] | 0.28 nM
23 | Cc1cc(-c2c(-c3nccs3)nc(N)n3ncnc23)cc(C(F)(F)F)n1 [Example A-8] | 23.9 nM
24 | Cc1cc(-c2c(-c3ccc(F)cc3F)nc(N)n3ncnc23)cc(C(F)(F)F)n1 [Example A-25] | 1.14 nM
25 | Cc1cc(-c2c(-c3ccccc3F)nc(N)n3nc(CO)nc23)cc(C(F)(F)F)n1 [Example C-52] | 1.75 nM
26 | Cc1cc(-c2c(-c3ccc(C)o3)nc(N)n3nc(CO)nc23)cc(C(F)(F)F)n1 [Example C-66] | 0.79 nM
27 | Nc1nc(-c2ccccc2)c(-c2ccc3[nH]nc(C(F)(F)F)c3c2)c2ncnn12 [Example B-10] | 1.98 nM
28 | COc1ccccc1-c1nc(N)n2ncnc2c1-c1cc(C)nc(C)c1 [Example A-27] | 4.38 nM
29 | COc1cc(F)ccc1-c1nc(N)n2ncnc2c1-c1cc(C)nc(C(F)(F)F)c1 [Example A-23] | 1.15 nM
30 | Nc1nc(-c2ccccc2)c(-c2ccc3[nH]cnc3c2)c2ncnn12 [Example B-8] | 0.44 nM
31 | CC1C=C(c2c(-c3ccccc3)nc(N)n3ncnc23)CC(C)O1 (stereo not drawn) [Example B-24] | 1.18 nM
32 | COc1c(F)cc(F)cc1-c1nc(N)n2ncnc2c1-c1cc(Cl)nc(C(F)(F)F)c1 [Example A-33] | 15.3 nM
33 | Cc1cc(-c2c(-c3ccc(F)cc3F)nc(N)n3ncnc23)cc(C)n1 [Example A-26] | 0.87 nM
34 | Cc1cc(-c2c(-c3ccccn3)nc(N)n3ncnc23)cc(C(F)(F)F)n1 [Example A-7] | 5.83 nM
35 | Nc1nc(-c2ccccc2)c(-c2ccc3[nH]nnc3c2)c2nc(C3CC3)nn12 [Example C-26] | 4.34 nM
36 | CCc1cc(-c2c(-c3ccccc3)nc(N)n3ncnc23)cc(C(F)(F)F)n1 [Example B-32] | 2.83 nM
37 | Cc1cc(-c2c(-c3ccc(O)cc3)nc(N)n3ncnc23)cc(C(F)(F)F)n1 [Example A-10] | 0.88 nM
38 | COc1ccccc1-c1nc(N)n2ncnc2c1-c1cc(Cl)nc(C(F)(F)F)c1 [Example A-31] | 1.25 nM
39 | Cc1cc(-c2c(-c3ccncc3)nc(N)n3ncnc23)cc(C(F)(F)F)n1 [Example A-11] | 3.87 nM
40 | Cc1cc(-c2c(-c3ccccc3)nc(N)n3nc(COCc4ccccc4)nc23)cc(C)n1 [Example C-12] | 0.82 nM
41 | Cc1cc(-c2c(-c3ccccc3)nc(N)n3nc(C4CC4)nc23)cc(C(F)(F)F)n1 [Example C-10] | 3.68 nM
42 | Cc1cc(-c2c(-c3ccco3)nc(N)n3ncnc23)cc(C(F)(F)F)n1 [Example A-19] | 1.16 nM

More lines, now with the values ahead:

Row | IC50 | Structure (SMILES)
43 | 0.26 nM | Cc1cc(-c2c(-c3ccc(C)o3)nc(N)n3nc(CO)nc23)cc(Cl)n1 [Example C-67]
44 | 0.64 nM | COCCOCc1nc2c(-c3cc(C)nc(C(F)(F)F)c3)c(-c3ccc(F)cc3)nc(N)n2n1 [Example C-68]
45 | 2.03 nM | Cc1cc(-c2c(-c3ccc(F)cc3)nc(N)n3nc(C(C)(C)O)nc23)cc(C(F)(F)F)n1 [Example C-75]
46 | 5.36 nM | COc1ccccc1-c1nc(N)n2nc(CO)nc2c1-c1cc(C)nc(C(F)(F)F)c1 [Example C-50]
47 | 0.59 nM | Cc1cc(-c2c(-c3ccc(F)cc3)nc(N)n3nc(CO[C@H]4CCOC4)nc23)cc(Cl)n1 [Example C-70]
48 | 0.45 nM | CCc1nc2c(-c3cc(C)nc(C)c3)c(-c3ccccc3)nc(N)n2n1 [Example C-8]
49 | 0.84 nM | Cc1cc(-c2c(-c3ccc(F)cc3)nc(N)n3nc(CN(C)C)nc23)cc(Cl)n1 [Example C-65]
50 | 0.38 nM | Cc1cc(-c2c(-c3ccc(F)cc3)nc(N)n3ncnc23)cc(C(F)(F)F)n1 [Example A-15]
51 | 2.99 nM | CCc1nc2c(-c3cc(C)nc(C(F)(F)F)c3)c(-c3ccccc3OC)nc(N)n2n1 [Example C-30]
52 | 1.73 nM | Cc1cc(-c2c(-c3ccc(F)cc3)nc(N)n3nc(C#N)nc23)cc(Cl)n1 [Example C-73]
53 | 1.08 nM | Cc1cc(-c2c(-c3ccc(F)cc3)nc(N)n3nc(C)nc23)cc(Cl)n1 [Example C-54]
54 | 1.2 nM | Cc1cc(-c2c(-c3ccccc3)nc(N)n3nc(CNC4CC4)nc23)cc(C)n1 [Example C-20]
55 | 4.13 nM | CCc1nc2c(-c3cc(C)nc(C(F)(F)F)c3)c(-c3ccccc3F)nc(N)n2n1 [Example C-35]
56 | 54.3 nM | COCCOCc1nc2c(-c3cc(C)nc(Cl)c3)c(-c3ccc(F)cc3)nc(N)n2n1 [Example C-69]
57 | 7.73 nM | Cc1cc(-c2c(-c3ccc(F)cc3F)nc(N)n3nc(CO)nc23)cc(C(F)(F)F)n1 [Example C-53]
58 | 1.4 nM | Cc1cc(-c2c(-c3ccccc3)nc(N)n3nc(CC4CC4)nc23)cc(C)n1 [Example C-9]
59 | 6.84 nM | CC(C)(O)c1nc2c(-c3cc(Cl)nc(C(F)(F)F)c3)c(-c3ccc(F)cc3)nc(N)n2n1 [Example C-77]
60 | 0.82 nM | Cc1cc(-c2c(-c3ccc(F)cc3)nc(N)n3nc(CO[C@H]4CCOC4)nc23)cc(C(F)(F)F)n1 [Example C-71]
61 | 0.86 nM | Cc1cc(-c2c(-c3ccc(F)cc3)nc(N)n3nc(CO)nc23)cc(C)n1 [Example C-55]
62 | 44.5 nM | Cc1cc(-c2c(-c3ccc(F)cc3)nc(N)n3nc(C(F)(F)F)nc23)cc(C(F)(F)F)n1 [Example C-40]
63 | 9.95 nM | Cc1nc2c(-c3ccc4[nH]nnc4c3)c(-c3ccc(F)cc3)nc(N)n2n1 [Example C-59]
